Experimental data from patent publication US4895589A, “Heterocyclic compounds” (Imperial Chemical Industries PLC, priority 1985, dated 1990).
Values after ≈ are worked out from the molar mass of the structure shown. Values belong to the molecule of their own block, whether it stands above or below them.

Key:
Vines = conditions: VN, 4000 ppm, 2-3 weeks
Experimental: (§1) The compounds were tested for plant growth regulator activity against up to tweleve plant species for various growth effects relevant to plant growth regulation.
(§2) After spray, the plants were grown in a glasshouse with 25° C. day/22° C. night temperatures and supplementary lighting was supplied when necessary (from mercury vapour lamps), to provide a 16 hour photoperiod. The exception to this were the temperate cereals, wheat and barley, which were grown in 16° C. day 13° C. night temperatures
(§3) After 2-3 weeks in the glasshouse, depending on the time of year, the plants were visually assessed for morphological characteristics. Formulations blanks were used as controls to assess the Plants.

Solubility in water = assay type: physicochemical
Maize = conditions: MZ, 4000 ppm, 2-3 weeks
Experimental: as §1, §2, §3

Radish = conditions: RA, 4000 ppm, 2-3 weeks
Experimental: as §1, §2, §3

Wheat = conditions: WW, 4000 ppm, 2-3 weeks
Experimental: as §1, §2, §3

Apple = assay: Whole Plant Screen (2), apple; assay type: in vivo, Apple (Red Delicious); conditions: AP, 4000 ppm, side-by-side, Table XIII
Experimental: After 2-6 weeks in the glasshouse, depending on the time of year, the plants were visually assessed for morphological characteristics. Formulation blanks were used as controls to assess the plants.
Compound numbers 1, 5 and 7 (of the present invention) were tested against compounds A, B, C and D (compound Nos. 12, 2, 24 and 50 of Table 1 EP No. 0052424) on whole plant screen (2). The compounds were tested of plant growth regulator activity against five species and for various growth effects relevant to plant growth regulation. The structures are set out in FIG. 1.
The plant species used in this screen are presented in Table XII with the leaf stage at which they were sprayed Each chemical was applied at 4000 ppm (4 kg/ha in a 1000 l/ha field volume) using a tracksprayer and a SS8004E (Teejet) nozzle. […]

[1] = system: plants (broad species spectrum); assay: Overall plant growth regulating effects in the Examples; assay type: in vivo; conditions: 1000 ppm rate
Sugar beet = conditions: SB, 4000 ppm, 2-3 weeks
Experimental: as §1, §2, §3

Half life in soil = assay type: physicochemical
Lettuce = conditions: LT, 4000 ppm, 2-3 weeks
Experimental: as §1, §2, §3

- solubility (Solubility in water): 1900 µg/mL (≈ 7.62 mM)
- half-life (Half life in soil): 7 to 14 days
Compound: CCCCC#CC(O)(Cn1cncn1)C(C)(C)C (stereo not shown) [Compound 1, 2,2-dimethyl-3-hydroxy-3-(hex-1-yne-1-yl)-4-(1,2,4-triazol-1-yl)-butane]
- Retardation score (1-3) with greening (G), apical damage (A), tillering/side shooting (T) (Vines): 1GT
- Retardation score (1-3) with greening (G), apical damage (A), tillering/side shooting (T) (Maize): 2GA
- Retardation score (1-3) with greening (G), apical damage (A), tillering/side shooting (T) (Radish): 2G
- Retardation score (1-3) with greening (G), apical damage (A), tillering/side shooting (T) (Wheat): 3T
- G = Greening effect (Apple): 1 (10-30%)
- retardant activity on barley and rice versus apples [1]: considerably more active as a cereal retardant on barley and rice than as a woody species retardant on apples
- Retardation score (1-3) with greening (G), apical damage (A), tillering/side shooting (T) (Sugar beet): 1G

Compound: CC(C)CC#CC(O)(Cn1cncn1)C(C)(C)C (stereo not shown) [Compound 7, 2,2-dimethyl-3-hydroxy-3-(4-methyl-pent-1-yne-1-yl)-4-(1,2,4-triazol-1-yl)-butane]
- Retardation score (1-3) with greening (G), apical damage (A), tillering/side shooting (T) (Lettuce): 1G
- Retardation score (1-3) with greening (G), apical damage (A), tillering/side shooting (T) (Wheat): 3GT
- G = Greening effect (Apple): 1 (10-30%)
- Retardation score (1-3) with greening (G), apical damage (A), tillering/side shooting (T) (Sugar beet): 1G
